How the values were obtained:
CDK4 = CDK4 (Homo sapiens, UniProt P11802); experiment: In vitro kinase assay with recombinant protein (32P-ATP, filtermat); type: biochemical; conditions: recombinant CDK4, independent in vitro kinase assay, 20μM ATP
Procedure: (§1) (B) Structure of ON108110. (C) Calculation of IC50 values against CDK4 and CDK6 and (D) CK2α1 and CK2α2 by ON108110. Recombinant proteins were incubated with the indicated concentrations of ON108110 and subjected to in vitro kinase assays as described in the materials and methods section. Values obtained were plotted as a function of log drug concentration. IC50 values were determined by performing sigmoidal non-linear regression with a variable slope.
(§2) Recombinant CDK4/CYCLIN D1 or CK2α1 were mixed with their respective synthetic peptide substrates (10ng) and incubated with DMSO or increasing concentrations of ON108110 in 20μl kinase buffer [50mM Tris-HCl (pH 7.5), 10mM MgCl2, 1mM EGTA, 2mM DTT and 0.01% NP-40] for 30 min. at room temperature. Kinase reactions were carried out for 20 min at 30°C in the presence of 5μl of substrate-ATP mixture (1μg RB, 20μM ATP, 20μCi γ-^32P-ATP). […] The filtermat was air-dried, blocked with methanol for 2 minutes followed by three washes with 75mM phosphoric acid. The filtermat was then air-dried and analyzed using a phosphoimager.

CK2α1 = CK2α1 (Homo sapiens, UniProt P68400); experiment: as above; type: biochemical; conditions: recombinant CK2α1, independent in vitro kinase assay, 20μM ATP
Procedure: as §1, §2

CK2α2 = CK2α2 (Homo sapiens, UniProt P19784); experiment: as above; type: biochemical; conditions: recombinant CK2α2, independent in vitro kinase assay, 20μM ATP
Procedure: as §1, §2

recombinant CK2α1 = target: T1, recombinant CK2α1 (Homo sapiens, UniProt P68400); experiment: Microscale thermophoresis (MST); type: binding; conditions: 16 concentrations 0.1nM-1000nM, average of 3 independent experiments
T1 construct: Amino acid residues 3-335 of CK2α1 were cloned using BamH1 and HindIII into pET28bsmt3-SUMO fusion vector; SUMO (N); made in house; host or cells: Escherichia coli BL21-DE3 (RIL)
Procedure: Purified His6-CK2α1 (kinase domain) was labeled with red NT-647 cysteine-reactive dye according to the manufacturer (NanoTemper Technologies). A fixed quantity of NT-647-labeled CK2α1 (50nM) was incubated with the indicated concentrations of ON108110 in binding buffer (20 mM Tris-HCl, pH 7.5, 150 mM NaCl, 1 mM MgCl2, 0.1% Triton X-100, and 2% DMSO) at room temperature in the dark for 30 min. Samples were then loaded into hydrophilic capillaries (NanoTemper Technologies) and binding was measured using the Monolith NT.115 (NanoTemper Technologies). Binding data were analyzed using thermophoresis or hot/cold analysis, as previously described prior to normalization to either ΔFnorm[%(10^*(Fnorm(bound)-Fnorm(unbound)) or fraction bound (ΔFnorm[%]/amplitude). Dissociation constants (Kd) were calculated using built-in curve-fitting software provided by the manufacturer (NanoTemper Technologies).

[1] = system: panel of solid tumor and leukemic cell lines; experiment: Primary growth inhibition screen, MCLs and T-ALLs compared to other tumor types; type: cell-based, human; conditions: from GI50 values of primary screen
Procedure: Cell lines were cultured in RPMI-1640 medium (Thermo Scientific) supplemented with 10% heat inactivated FBS and penicillin-streptomycin at 37°C under humidified conditions and 5% CO2. All cell lines tested negative for mycoplasma. […] Compounds were added 24 hrs post-plating at the indicated concentrations. Cell counts were determined from duplicate wells 96 hrs post-treatment using the Cell Titer Blue assay in conjunction with the GloMax plate reader (Promega).

Granta-519 cells = experiment: Caspase Glo 3/7 caspase activation assay; type: cell-based, human; conditions: increasing concentrations, 24 hours
Procedure: Figure 5 Modulation of cell cycle expression and induction of apoptosis in ON 108110-treated MCL and T-ALL cell lines (A) CEM and Granta-519 cells were treated with either DMSO or increasing concentrations of ON108110 (0.5-2.0μM) for 24 hours. Cell cycle analysis was performed using propidium iodide staining. (B) CEM, HBL-2, RS4-11 and Granta-519 cells were treated with either DMSO (vehicle) or increasing concentrations of ON108110 (0.5-2.0 μM) for 24 hours and stained with Annexin V/DAPI (C) Graphical representation of apoptosis induced as shown in B. (D) Granta-519 cells were treated with increasing concentrations of ON108110 for 24 hours. Caspase activation and viability were measured using the Caspase Glo 3/7 and Cell Titer Blue assay kits, respectively. TEXT PRINTED IN THE PICTURE: (B) DMSO: 1.31; 2.34; 94.5; 1.65 | (B) ON108110: 2.21 (0.5μM); 4.32 (0.5μM); 91.1 (0.5μM); 2.37 (0.5μM); 1.64 (1.0μM); 15 (1.0μM); 80.8 (1.0μM); 2.62 (1.0μM); 4.83 (2.0μM); 60.7 (2.0μM); 28.9 (2.0μM); 5.58 (2.0μM) DOUBTS OF THE COPYIST ABOUT THIS PICTURE: Panel B: the quadrant numbers in the Annexin V/DAPI plots have no printed measure or unit. […]
Caspase-3/7 activation was measured using the Caspase-Glo® 3/7 kit as recommended by the manufacturer (Promega).

Sequence of CK2α1 (P68400 whole entry): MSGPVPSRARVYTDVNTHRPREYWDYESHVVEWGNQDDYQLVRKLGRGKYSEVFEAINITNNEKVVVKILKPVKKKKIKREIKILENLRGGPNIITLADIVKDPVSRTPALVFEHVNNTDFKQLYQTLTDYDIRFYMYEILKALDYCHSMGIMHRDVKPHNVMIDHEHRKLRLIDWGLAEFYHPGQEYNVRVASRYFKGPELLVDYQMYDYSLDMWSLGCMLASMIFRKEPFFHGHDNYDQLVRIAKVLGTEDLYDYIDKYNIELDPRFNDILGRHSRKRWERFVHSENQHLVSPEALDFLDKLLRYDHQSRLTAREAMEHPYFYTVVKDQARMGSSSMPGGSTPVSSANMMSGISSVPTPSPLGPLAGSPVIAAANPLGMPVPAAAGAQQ
T1 sequence (P68400 3-335): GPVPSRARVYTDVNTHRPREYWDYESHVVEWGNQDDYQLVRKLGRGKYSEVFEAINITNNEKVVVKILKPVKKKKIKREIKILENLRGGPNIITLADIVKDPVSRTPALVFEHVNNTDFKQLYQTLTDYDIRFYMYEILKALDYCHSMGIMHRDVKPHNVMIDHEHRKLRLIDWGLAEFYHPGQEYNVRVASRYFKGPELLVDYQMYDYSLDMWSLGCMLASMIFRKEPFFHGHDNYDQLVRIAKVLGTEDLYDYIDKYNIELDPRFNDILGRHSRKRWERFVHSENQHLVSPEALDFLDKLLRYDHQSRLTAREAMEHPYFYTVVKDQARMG
Sequence of CDK4 (P11802 whole entry): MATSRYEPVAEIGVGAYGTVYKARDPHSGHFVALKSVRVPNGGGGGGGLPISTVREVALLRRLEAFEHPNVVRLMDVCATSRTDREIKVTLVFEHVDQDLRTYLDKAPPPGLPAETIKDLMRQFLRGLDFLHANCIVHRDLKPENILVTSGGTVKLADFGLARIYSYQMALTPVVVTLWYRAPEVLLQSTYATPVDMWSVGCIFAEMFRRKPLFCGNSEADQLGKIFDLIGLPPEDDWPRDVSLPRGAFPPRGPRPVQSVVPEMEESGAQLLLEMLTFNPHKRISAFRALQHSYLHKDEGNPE
Sequence of CDK4 (P24385 whole entry partner): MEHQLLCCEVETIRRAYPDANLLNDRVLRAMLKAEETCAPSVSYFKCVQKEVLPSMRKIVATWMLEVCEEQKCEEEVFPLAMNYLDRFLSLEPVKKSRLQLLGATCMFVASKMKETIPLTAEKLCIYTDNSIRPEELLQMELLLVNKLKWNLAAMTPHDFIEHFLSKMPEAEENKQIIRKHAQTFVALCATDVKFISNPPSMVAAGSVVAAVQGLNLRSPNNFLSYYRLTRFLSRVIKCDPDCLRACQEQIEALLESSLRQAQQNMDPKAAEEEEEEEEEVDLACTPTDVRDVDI
Sequence of CK2α2 (P19784 whole entry): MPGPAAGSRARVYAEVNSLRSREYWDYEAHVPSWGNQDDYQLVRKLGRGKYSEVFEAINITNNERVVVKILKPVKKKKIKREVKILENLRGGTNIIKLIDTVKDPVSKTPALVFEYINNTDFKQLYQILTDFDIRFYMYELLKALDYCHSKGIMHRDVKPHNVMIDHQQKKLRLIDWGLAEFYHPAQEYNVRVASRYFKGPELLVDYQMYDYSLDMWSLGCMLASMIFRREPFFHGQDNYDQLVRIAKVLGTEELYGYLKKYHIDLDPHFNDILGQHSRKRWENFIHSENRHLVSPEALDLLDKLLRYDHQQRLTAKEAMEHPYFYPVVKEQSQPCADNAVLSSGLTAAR

CC(=O)Oc1ccc(/C=C2\Sc3ccc(F)cc3NC2=O)cc1[N+](=O)[O-] [ON108110]
IC50 (CDK4): 6 nM | IC50 (CK2α1): 3 nM | IC50 (CK2α2): 2 nM | Kd (recombinant CK2α1): 2.5 nM | fold higher cytotoxicity against MCLs and T-ALLs compared to other tumor types [1]: 10-20 fold | Caspase activity and PARP cleavage (Granta-519 cells): increased as a function of cell death
